Source: patent US11980630B2 (priority 2017, dated 2024)
Entries after “also recorded” stand apart in the source; their conditions may differ. Like-named read-outs stand apart in the source and are kept apart here.

Key:
[1] = target: SARS-CoV nsp14 (N7 MTase) (Severe acute respiratory syndrome coronavirus, UniProt P0C6X7); format: biochemical
[2] = target: T1, RSV MTase (Human respiratory syncytial virus A, UniProt P28887); assay: biochemical; format: biochemical
T1 construct: RSV MTase: 4 μM

[3] = target: T2, Zika virus NS5 MTase (Zika virus, UniProt A0A024B7W1); assay: biochemical
T2 construct: Zika virus NS5 MTase: 500 nM
T2 sequence (A0A024B7W1 2521-2785 limits assumed): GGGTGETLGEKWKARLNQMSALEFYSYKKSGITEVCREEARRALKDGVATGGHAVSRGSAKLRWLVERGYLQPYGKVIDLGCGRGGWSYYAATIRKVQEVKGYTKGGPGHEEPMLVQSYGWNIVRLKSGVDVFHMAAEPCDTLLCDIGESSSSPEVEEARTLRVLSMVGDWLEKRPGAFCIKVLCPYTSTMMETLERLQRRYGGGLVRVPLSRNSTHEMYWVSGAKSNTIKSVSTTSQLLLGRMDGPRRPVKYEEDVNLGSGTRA

[4] = target: human N7 MTase (hN7 or RNMT) (Homo sapiens, UniProt O43148); assay: biochemical
Sequence of human N7 MTase (hN7 or RNMT) (O43148 whole entry): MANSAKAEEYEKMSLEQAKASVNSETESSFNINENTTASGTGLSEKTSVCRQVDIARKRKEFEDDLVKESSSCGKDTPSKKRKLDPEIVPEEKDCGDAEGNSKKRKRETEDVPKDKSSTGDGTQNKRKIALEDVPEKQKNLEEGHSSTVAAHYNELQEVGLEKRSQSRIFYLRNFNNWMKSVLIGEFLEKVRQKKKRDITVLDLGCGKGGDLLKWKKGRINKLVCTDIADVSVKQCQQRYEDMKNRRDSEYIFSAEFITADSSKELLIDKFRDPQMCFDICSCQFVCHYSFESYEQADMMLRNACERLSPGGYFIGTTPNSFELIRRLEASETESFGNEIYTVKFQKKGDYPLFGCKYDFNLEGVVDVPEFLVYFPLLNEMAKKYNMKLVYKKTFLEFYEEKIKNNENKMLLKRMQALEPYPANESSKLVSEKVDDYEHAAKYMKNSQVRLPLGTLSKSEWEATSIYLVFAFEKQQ

[5] = target: SARS polymerase complex (12HC/7HC8) (Severe acute respiratory syndrome coronavirus, UniProt P0C6X7); format: biochemical
[6] = target: MERS polymerase complex (12HC/7HC8) (Middle East respiratory syndrome-related coronavirus, UniProt K9N7C7); format: biochemical
Sequence of MERS polymerase complex (12HC/7HC8) (K9N7C7 4378-5310 limits assumed): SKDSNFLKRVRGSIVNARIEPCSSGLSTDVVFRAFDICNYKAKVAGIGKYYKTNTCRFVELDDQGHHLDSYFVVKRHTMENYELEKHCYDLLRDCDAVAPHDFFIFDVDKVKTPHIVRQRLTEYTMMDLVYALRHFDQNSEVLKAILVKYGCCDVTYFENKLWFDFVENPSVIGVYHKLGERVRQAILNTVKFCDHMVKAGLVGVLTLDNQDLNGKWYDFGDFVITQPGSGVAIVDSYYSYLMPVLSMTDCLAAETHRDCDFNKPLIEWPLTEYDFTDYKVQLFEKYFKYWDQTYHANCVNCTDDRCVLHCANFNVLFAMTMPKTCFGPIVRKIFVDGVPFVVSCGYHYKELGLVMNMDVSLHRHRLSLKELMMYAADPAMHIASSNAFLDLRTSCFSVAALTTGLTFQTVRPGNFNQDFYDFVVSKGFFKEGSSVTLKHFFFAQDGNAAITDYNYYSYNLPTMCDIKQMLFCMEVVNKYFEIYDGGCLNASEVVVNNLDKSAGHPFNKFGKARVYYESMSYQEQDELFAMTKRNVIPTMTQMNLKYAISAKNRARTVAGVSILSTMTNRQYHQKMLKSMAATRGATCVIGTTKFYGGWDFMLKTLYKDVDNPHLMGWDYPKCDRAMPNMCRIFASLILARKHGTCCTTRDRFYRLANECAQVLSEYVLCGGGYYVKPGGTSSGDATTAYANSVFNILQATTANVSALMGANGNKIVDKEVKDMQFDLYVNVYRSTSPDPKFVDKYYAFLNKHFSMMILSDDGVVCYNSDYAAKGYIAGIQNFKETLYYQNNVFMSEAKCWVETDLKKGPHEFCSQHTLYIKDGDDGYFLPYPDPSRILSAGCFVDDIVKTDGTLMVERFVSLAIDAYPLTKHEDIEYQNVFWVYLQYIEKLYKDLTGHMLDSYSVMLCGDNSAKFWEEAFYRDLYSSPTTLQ
Sequence of MERS polymerase complex (12HC/7HC8) (K9N7C7 3846-3928 partner limits assumed): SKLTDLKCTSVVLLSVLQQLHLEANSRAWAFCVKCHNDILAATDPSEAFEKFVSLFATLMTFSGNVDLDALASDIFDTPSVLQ
Sequence of MERS polymerase complex (12HC/7HC8) (K9N7C7 3929-4127 partner limits assumed): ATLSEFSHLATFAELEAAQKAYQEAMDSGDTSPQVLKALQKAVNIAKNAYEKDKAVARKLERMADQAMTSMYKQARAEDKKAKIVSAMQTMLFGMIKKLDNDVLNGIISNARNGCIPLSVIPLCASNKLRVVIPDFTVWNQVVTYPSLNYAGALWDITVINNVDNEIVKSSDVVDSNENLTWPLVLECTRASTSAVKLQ

[7] = target: T3, hMPV MTase (Human metapneumovirus, UniProt Q6WB93); assay: biochemical; format: biochemical
T3 construct: hMPV MTase: 1 μM
T3 sequence (Q6WB93 1599-2005 limits assumed): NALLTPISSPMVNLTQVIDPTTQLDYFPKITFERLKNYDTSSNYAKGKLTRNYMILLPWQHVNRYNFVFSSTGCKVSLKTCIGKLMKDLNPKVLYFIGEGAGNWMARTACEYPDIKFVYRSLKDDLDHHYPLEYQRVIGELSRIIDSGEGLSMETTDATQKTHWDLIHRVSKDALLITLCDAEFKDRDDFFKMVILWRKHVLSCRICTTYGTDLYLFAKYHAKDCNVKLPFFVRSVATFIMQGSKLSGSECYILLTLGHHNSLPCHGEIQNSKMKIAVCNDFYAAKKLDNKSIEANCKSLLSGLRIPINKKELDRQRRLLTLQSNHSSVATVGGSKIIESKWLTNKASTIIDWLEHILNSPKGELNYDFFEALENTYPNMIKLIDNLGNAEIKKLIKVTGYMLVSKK

[8] = target: T4, Dengue virus NS5 MTase (Dengue virus type 2, UniProt P29990); assay: biochemical
T4 construct: Dengue virus NS5 MTase: 500 nM
T4 sequence (P29990 2493-2755 limits assumed): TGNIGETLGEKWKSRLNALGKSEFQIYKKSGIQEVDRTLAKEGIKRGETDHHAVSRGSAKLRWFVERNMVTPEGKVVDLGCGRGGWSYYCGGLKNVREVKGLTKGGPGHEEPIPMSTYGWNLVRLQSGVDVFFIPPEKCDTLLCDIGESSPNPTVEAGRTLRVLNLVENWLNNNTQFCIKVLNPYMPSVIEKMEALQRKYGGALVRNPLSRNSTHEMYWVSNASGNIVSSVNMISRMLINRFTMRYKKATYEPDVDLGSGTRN

[9] = test system: SUDV (Gulu); assay: microbe, parasite or virus in culture; format: cell-based, Sudan virus; details: for EC50: Sudan ebolavirus, HeLa
[10] = test system: HeLa cells; details: human
[11] = test system: MARV (Ci67); assay: organism not typed; format: cell-based, Marburg virus; details: for EC50: HeLa
[12] = test system: EBOV (Makona); assay: microbe, parasite or virus in culture; format: cell-based, Ebola virus; details: for EC50: Zaire ebolavirus, HeLa
[13] = in vitro; details: human
[14] = test system: Rift Valley Fever; assay: microbe, parasite or virus in culture; format: cell-based; details: Huh-7, read-out: Rift Valley Fever EC50
[15] = test system: Lassa Virus; assay: microbe, parasite or virus in culture; format: cell-based; details: Mammarenavirus lassaense, Huh-7, read-out: Lassa Virus EC50
[16] = test system: recombinant reporter EBOV; assay: microbe, parasite or virus in culture; format: cell-based, Ebola virus; details: for EC50: Zaire ebolavirus
[17] = test system: Huh7 cells; details: human
[18] = test system: EBOV; details: cited from earlier work
[19] = test system: MARV; details: cited from earlier work
[20] = read-out: SUDV EC50 (50% inhibition of virus-induced CPE)
[21] = read-out: MARV EC50 (50% inhibition of virus-induced CPE)
[22] = read-out: EBOV EC50 (50% inhibition of virus-induced CPE)
[23] = Huh-7, read-out: EC50 against EBOV in Huh7 cells

T1 sequence (P28887 1820-2008 limits assumed): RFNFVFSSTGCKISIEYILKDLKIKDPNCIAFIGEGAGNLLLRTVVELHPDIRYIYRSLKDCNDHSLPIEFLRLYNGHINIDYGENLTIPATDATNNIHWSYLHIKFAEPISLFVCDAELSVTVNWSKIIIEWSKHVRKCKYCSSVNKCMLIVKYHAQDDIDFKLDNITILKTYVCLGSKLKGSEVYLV

Compound: COc1nc(N)ncc1-c1cn(COCCOP(=O)(O)OP(=O)(O)OP(=O)(O)O)cn1 [Compound 2MR04]
- Inhibition of SARS-nsp14 MTase activity [1]: inhibits
- IC50 [2]: ~18 µM
- Inhibition of RSV MTase activity [2]: strongly inhibiting
- Inhibition of Zika virus MTase activity [3]: inhibits
- IC50 ([3]; IC50 Zika NS5-MTase): ~22 µM
- IC50 ([3]; IC50 in another testing (FIG. 15, effect on Zika Virus)): ~17 µM
- IC50 [4]: ~49 µM
- Inhibition of RNMT (RNA Guanine-7 Methyltransferase) [4]: not inhibited
- Reduction of product / oligonucleotide synthesis by SARS polymerase [5]: comparable to the other inhibitors
- Reduction of product / oligonucleotide synthesis by MERS polymerase [6]: as effective as the 3′dGTP inhibitor; also recorded: as effective, not more effective, in reduction of oligonucleotide synthesis
- IC50 [7]: ~31 µM
- Inhibition of hMPV MTase activity [7]: strongly inhibiting; also recorded: inhibits
- IC50 [8]: ~22 µM
- Inhibition of Dengue virus NS5 MTase activity [8]: inhibits

Compound: COc1nc(N)ncc1-c1cn(COCCOC(C)=O)cn1 [Compound 2]
- EC50 [9, 20]: 20 ± 10 µM
- CC50 [10]: > 100 µM
- EC50 [11, 21]: 70 ± 27 µM
- EC50 [12, 22]: 44 ± 13 µM
- CC50 [13]: > 100 µM

Compound: COc1nc(N)ncc1-c1cn(COCCO)cn1 [Compound 1]
- Antiviral activity against SUDV [9]: no detectable activity
- EC50 [9, 20]: > 100 µM
- EC50 [14]: > 50 µM
- CC50 [10]: > 100 µM
- EC50 [15]: > 50 µM
- Antiviral activity against MARV [11]: no detectable activity
- EC50 [11, 21]: > 100 µM
- Antiviral activity against EBOV [12]: no detectable activity
- EC50 [12, 22]: > 100 µM
- Antiviral activity against recombinant reporter EBOV [16]: exhibited antiviral activity
- EC50 ([16]; Huh-7, read-out: EBOV EC50): 2.2 ± 0.3 µM
- EC50 [16, 23]: 2.2 ± 0.3 µM
- CC50 [17]: > 50 µM

Compound: CCC(CC)COC(=O)[C@H](C)N[P@](=O)(OC[C@H]1O[C@@](C#N)(c2ccc3c(N)ncnn23)[C@H](O)[C@@H]1O)Oc1ccccc1 [GS-5734]
- Activity against EBOV (literature, words) [18]: very potent activity
- Activity against MARV (literature, words) [19]: very potent activity

Compound: CCC(CC)OC(=O)[C@@H](C)N[P@](=O)(OCCOCn1cnc(-c2cnc(N)nc2OC)c1)Oc1ccccc1 [Compound 3]
- Antiviral activity against SUDV [9]: best activity against SUDV
- EC50 ([9]; read-out: EC50 SUDV in Hela cells (FIGS. 3-5)): 6.85 µM
- EC50 ([9]; read-out: EC50 against SUDV in HeLa cells): 7 ± 2 µM
- EC50 [9, 20]: 7 ± 2 µM
- EC50 [14]: > 50 µM
- CC50 [10]: > 100 µM
- EC50 [15]: > 50 µM
- Antiviral activity against MARV [11]: Activity against all three viruses was observed
- EC50 ([11]; read-out: EC50 MARV in Hela cells (FIGS. 3-5)): 62.3 µM
- EC50 [11, 21]: 62 ± 13 µM
- Antiviral activity against EBOV [12]: Activity against all three viruses was observed
- EC50 [12, 22]: 29 ± 9 µM
- EC50 ([12]; read-out: EC50 EBOV in Hela cells (FIGS. 3-5)): 29.1 µM
- EC50 ([12]; read-out: EC50 against EBOV in HeLa cells): 29 ± 9 µM
- Antiviral activity against recombinant reporter EBOV [16]: active against EBOV at a similar concentration; also recorded: exhibited antiviral activity
- Potency of McGuigan prodrug relative to compound 1 [16]: ~10 fold
- EC50 ([16]; Huh-7, read-out: EBOV EC50): 27.2 ± 2.2 µM
- EC50 [16, 23]: 27.2 ± 2.2 µM
- CC50 [17]: > 50 µM
